Data published in patent US20170327556A1, “CARTILAGE-BINDING FUSION PROTEINS” (Merrimack Pharmaceuticals, Inc., priority 2013, published 2017).
“Also recorded” adds a separate entry of the source.

Key:
[1] = system: bovine cartilage explants; assay: In vitro joint disease model (IL-1), explanted bovine cartilage: sGAG loss; format: cell-based; conditions: for cartilage matrix loss (% sGAG loss): 13.3 nM supplied in every medium change, IL-1, relative to Disease control; for cartilage matrix loss (% sGAG loss), 4 days versus 12 days of treatment: protein in medium day 0-4 only versus 12 days, IL-1, FIG. 7
Text: (§1) Bovine cartilage explants (3 mm diameter, 1.2 mm thick) are harvested from the femoral patellar groove of 2-4 week old bovine calves. Knee joints are mounted by removing all tissue surrounding the femur, removing the femoral head with a bone saw or hack saw, and clamping in a tissue vice. Joints are aseptically opened, removing the patella, tibia and fibula. Using a 3 mm diameter disposable biopsy punch, approximately 80×3 mm diameter full thickness cartilage cores are punched from the femoral-patellar groove. A sterile knife is used to slice the cores at the cartilage-bone interface. Cores are then inserted into 3 mm diameter holes in a 1.2 mm thick sterile stainless steel plate and sliced flush with the plate using sterile razor blades to remove the excess core length, resulting in 3 mm diameter, 1.2 mm thick cartilage explants with the superficial zone cartilage intact.
(§2) Explants are cultured in 96-well plates in 300 μL of medium consisting of low glucose DMEM (1× Gibco 11885-084), Penicillin-Streptomycin (1×, Gibco 15140-122), ascorbic acid (20 μg/mL, Sigma A4403), proline (400 μM, Sigma P5607-256), non-essential amino acids (1×, Sigma M7145), and HEPES (100 mM, Gibco 15630-080). Explants from three animals (n=2-3 per animal) are used in each treatment condition for a total explant number of 8-9 per condition. Medium is changed every 2 days. On days 6 and 10, the medium is supplemented with 5 μCi/mL of ^35S-sodium sulfate (Perkin Elmer NEX041H001MC, 1 mCi).
(§3) Timepoints are taken at day 8 and 12: explant tissue is washed four times for 30 min each (2 hr total) in 1 mM unlabeled sodium sulfate in PBS. Each explant is weighed wet and frozen at −20° C. until digestion. Tissue digestion was performed with Proteinase K (Roche cat #3115879001) and each explant is digested in 1 mL 100 μg/mL Proteinase K in 50 mM Tris-HCL, 1 mM Calcium Chloride pH=8.0 buffer at 60° C. overnight. Measurement of sGAG content and DNA content is performed using standard assay methods such as those described in Hoemann, 2004, Methods in Molecular Medicine: Cartilage and Osteoarthritis. Totowa, N.J.: Humana Press Inc.; p. 127-52. ^35S-sulfate content of the digested cartilage explants was quantified by mixing 20 μL of digest with 250 μL of scintillation fluid (Perkin Elmer cat #1200-439) and counting with a WALLAC 1450 MICROBETA TRILUX scintillation counter.
(§4) Treatments were given at the following concentrations: wtIGF-1 13.3 nM=100 ng/mL (IGF-1 R&D systems 291-G1); GF-Fus1 (6x-Histidine tagged) 13.3 nM=135 ng/mL; GF-Fus2 (6x-Histidine tagged) 13.3 nM=140 ng/mL; and GF-Fus3 (6x-Histidine tagged)13.3 nM=181 ng/mL. All treatments included IL-1 and were given for either 4 days or the entire culture duration. The outcomes measured were ^35S-sulfate incorporation, DNA content, and sGAG content of plug at endpoint, and sGAG released to media for all media changes. Controls were either no treatment (Healthy) or IL-1 alone at 1 ng/mL (Disease).
(§5) FIG. 4 depicts a graph of cartilage matrix loss as measured by the cumulative percentage of total sGAG lost to the culture medium against time (days). Percentage loss is calculated by dividing the cumulative sGAG in the culture medium by the total sGAG present in the medium over the culture period plus the sGAG remaining in the explant at the end of culture. Cartilage matrix loss was reduced by each IGF fusion protein relative to the disease control at a level similar to wild-type IGF. New cartilage matrix synthesis (i.e. sulfated proteoglycan synthesis is measured by ^35S-Sulfate incorporation) during the final 48 hrs of cultures terminated at day 8 and day 12 is shown in FIGS. 5A and 5B, respectively. Cartilage matrix synthesis was increased compared to disease control by all fusion proteins (GF-Fus1, GF-Fus2, and GF-Fus3) and wild-type IGF when the fusion proteins were supplied in every medium change for the entire culture duration of 8 and 12 days (black bars). […]

[2] = system: bovine cartilage explants; assay: In vitro joint disease model (IL-1), explanted bovine cartilage: ^35S-sulfate incorporation; format: cell-based; conditions: for cartilage matrix synthesis (^35S-sulfate incorporation): supplied in every medium change for 8 or 12 days, IL-1, final 48 hrs, versus Disease control
Text: as §1, §2, §3, §4, §5

Substance	cartilage matrix loss (% sGAG loss) [1]	cartilage matrix synthesis (^35S-sulfate incorporation) [2]	cartilage matrix loss (% sGAG loss), 4 days versus 12 days of treatment [1]	cartilage matrix synthesis (^35S-sulfate incorporation) after fusion protein removal ([2]; treatment day 0-4 only, measured at day 8 and day 12, IL-1)
GF-Fus6: IGF-1(LR3) fused to CNA344 CB domain	reduced	increase		
GF-Fus3: C-terminal fusion IGF-1(LR3)-PRELP heparin binding domain	reduced	increase; also recorded: stimulated cartilage matrix biosynthesis	reduced sGAG loss by an equivalent amount	highest; also recorded: increased proteoglycan biosynthesis by an equivalent amount; also recorded: largest increase
GF-Fus1: IGF-1 variant polypeptide Long [R^3]-IGF-1, no fused binding domain; used 6x-Histidine-tagged as control [reference compound]	reduced	increase; also recorded: stimulated cartilage matrix biosynthesis	higher sGAG loss than 12 days of treatment	
wtIGF: Wild-type IGF-1 (R&D systems 291-G1), control [reference compound]	reduced	increased		
GF-Fus5: IGF-1(LR3) fused to CNA35 CB domain	reduced	increase		
